Patent US20260131007A1, “Mannose 6-Phosphate Receptor Binding Compounds for the Degradation of Extracellular Proteins” (Avilar Therapeutics, Inc., priority 2023, published 2026)
Where two headings read alike, the source gives them in different places.

Legend:
[1] = molecular target: T1, hIGF-IIR and IgG1 (ternary complex) (Homo sapiens, UniProt P01857+P11717); test: HTRF-based ternary complex formation assay for hIGF-IIR targeting Extracellular Protein Degraders; type: binding
T1 construct: purchased R&D Systems 6418-GR
Text: The ternary complex formation assay is designed to identify and determine the potency of Extracellular Protein Degrader molecules which can induce the formation of ternary complex between the Extracellular Protein Degrader hIGF-IIR. Titrating Extracellular Protein Degrader to fixed amount of hIGF-IIR results in a bell-shaped curve (except molecules whose binary complex affinity between Extracellular Protein Degrader and hIGF-IIR). The peak mean represents Extracellular Protein Degrader concentration at which maximum ternary complex is formed. Too much or too little Extracellular Protein Degrader leads to decreased ternary complex formation due to formation of binary complex (Hook effect). Dose response of Extracellular Protein Degrader compounds (16-point 3-fold dilution series, 100X) were prepared by Echo Acoustic Liquid Handler (Beckman Coulter Life Sciences) using 384-well LDV microplate. Then 200 nL of the solutions were transferred to an OptiPlate 384-well microplate (PerkinElmer, 6007290). To the assay plate, 10 μL working solution containing 60 nM of Biotinylated-IgG1 (Viva 20211108) and 60 nM of His-tagged hIGF-IIR (R&D Systems, 6418-GR) in assay buffer 50 mM Tris, pH 7.5, 150 mM NaCl, 50 mM CaCl2, 0.01% Tween-20 were added. The plate was incubated for 60 min at room temperature with gentle shaking to allow molecular interaction to reach equilibration. Following this, 10 μL of HTRF detection solution containing 15 nM Streptavidin-d2 (PerkinElmer, 610SADLA) and 0.7 nM MAb Anti 6HIS—Tb cryptate (PerkinElmer, 61HISTLA) in PPI Terbium detection buffer (PerkinElmer, 61DB10RDF) were added. The assay plate was incubated at room temperature with gentle shaking for 60 min to allow HTRF signal to develop. The plate was gently spun on a centrifuge then placed on an EnVision plate reader (Perkin Elmer, EnVision 2104) to read fluorescence ratio of 665 nm/615 nm. Data were analyzed by fitting with Bell-shaped non-linear regression model using GraphPad Prism (GraphPad Software, LLC; version 9.4.1). Mean fluorescence intensity is graphed versus compound concentration and the EC50 for TCF is calculated from the inflection point of the curve (GraphPad).

K562 cells = test: Ternary complex formation (TCF) in K562 cells, flow cytometry with AF488-labeled human IgG; type: cell-based; conditions: AF488-labeled human IgG 300 nM, 4° C., 1 hour
Protocol: K562 cells were seeded in 96-well assay plate using K562 cell medium, then compounds and AF488-labeled human IgG (final concentration of 300 nM) were added at 4° C. and incubated for 1 hour. Afterwards, the cells were washed once with 1×PBS+0.1% BSA (Cold) and centrifuged at 1000 rpm for 5 minutes. Next, cells were re-suspended in 150 μL 1×PBS+0.1% BSA and ran flow cytometry on iQue® Screener PLUS.

IgG = test: Uptake and degradation in K562 cells (Western blot); type: cell-based, human; conditions: K562 cells treated with compound and IgG; FIG. 14-17
Protocol: On day one, cells were harvested, counted, and seeded 1 million/well in 6 well plates for each cell line. On day two, cells were treated with compounds and IgG (Sigma, Cat #14506 dissolved in medium). Treated cells were washed three times with PBS, followed by addition of 200 μL of RIPA buffer (+HALT protease and phosphatase inhibitors) per well. Lysates were left on ice for 5 minutes then were collected into microcentrifuge tubes using a cell scraper. Lysates were then kept on a shaker for 30-60 minutes at 4° C. followed by centrifugation at 14,000 rpm at 4° C. for 15 minutes. Then, supernatants were transferred to fresh tubes and total protein concentration of each sample was determined using Pierce BCA kit. Next, 25 ug total protein of each sample was resolved on a 4-20% gels and transferred to PVDF membranes. Membranes were blocked in TBST+5% milk (made fresh) for one hour while shaking at room temperature. Then, the first antibody was added in TBST+5% milk at 4° C. overnight: a) Rabbit anti-human IgG, Abcam; Cat #ab181236-1:1000, b) anti-β-actin, Cell signaling Tech, Cat #3700S)-1:3000. On the next day, membranes were washed with TBST 10 minutes each for three times. Later, the second antibody was added in TBST+5% milk at room temperature over one hour: a) IRDye 800CW Goat anti Rabbit IgG, Licor, Cat #926-32211)-1:10,000; b) IRDye 680RD Goat anti Mouse IgG (Licor Cat #926-68078)-1:10,000. Then, membranes were washed with TBST 10 minutes each for three times. The results were detected by Licor. Data from the uptake and degradation assay is shown in FIG. 14, FIG. 15, FIG. 16, and FIG. 17.

[2] = biotinylated IgG1 and His-tagged hIGF-IIR, 60 nM each, read-out: TCF (HTRF) EC50

| Structure (SMILES) | EC50 [1] [nM] | EC50 (K562 cells) [nM] | degradation of IgG (gel electrophoresis image) (IgG) | EC50 [1, 2] [nM] |
| --- | --- | --- | --- | --- |
| COc1ccc(OC2O[C@H](CCP(=O)(O)Cc3cccc(OCc4cn(CCOCCNC(=O)CCOCC(COCCC(=O)NCCOCCn5cc(COc6cccc(CP(=O)(O)CC[C@@H]7OC(Oc8ccc(OC)cc8)[C@H](O)[C@H](O)[C@H]7O)c6)nn5)(COCCC(=O)NCCOCCn5cc(COc6cccc(CP(=O)(O)CC[C@@H]7OC(Oc8ccc(OC)cc8)[C@H](O)[C@H](O)[C@H]7O)c6)nn5)NC(=O)COCCOCCOCC(=O)N[C@H]5C[C@H]6C(=O)N[C@@H](CC(=O)O)C(=O)N[C@H]7CSSC[C@H](NC(=O)[C@H](Cc8c[nH]c9ccccc89)NC(=O)[C@H](C(C)C)NC(=O)[C@H](CC(C)C)NC(=O)[C@H](CCC(=O)O)NC(=O)CNC(=O)[C@H](CC(C)C)NC(=O)[C@H](Cc8cnc[nH]8)NC(=O)[C@H](Cc8c[nH]c9ccccc89)NC(=O)[C@H](C)NC7=O)C(=O)N[C@@H]([C@@H](C)O)C(=O)N7CCC[C@@H]7C(=O)N6C5)nn4)c3)[C@@H](O)[C@H](O)[C@@H]2O)cc1 (stereo partly shown) [Compound 1] | < 50 | – | – | – |
| CC(C)C[C@@H]1NC(=O)[C@H](Cc2c[nH]cn2)NC(=O)[C@H](Cc2c[nH]c3ccccc23)NC(=O)[C@H](C)NC(=O)[C@@H]2CSSC[C@H](NC(=O)[C@H](Cc3c[nH]c4ccccc34)NC(=O)[C@H](C(C)C)NC(=O)[C@H](CC(C)C)NC(=O)[C@H](CCC(=O)O)NC(=O)CNC1=O)C(=O)N[C@@H]([C@@H](C)O)C(=O)N1CCC[C@@H]1C(=O)N1C[C@@H](NC(=O)COCCOCCOCC(=O)NC(COCCC(=O)NCCOCCn3cc([C@H]4O[C@H](CCP(=O)(O)O)[C@@H](O)[C@H](O)[C@@H]4O)nn3)(COCCC(=O)NCCOCCn3cc([C@H]4O[C@H](CCP(=O)(O)O)[C@@H](O)[C@H](O)[C@@H]4O)nn3)COCCC(=O)NCCOCCn3cc([C@H]4O[C@H](CCP(=O)(O)O)[C@@H](O)[C@H](O)[C@@H]4O)nn3)C[C@H]1C(=O)N[C@@H](CC(=O)O)C(=O)N2 [Compound 2] | < 50 | < 50 | degradation of IgG | – |
| CC(C)C[C@@H]1NC(=O)[C@H](Cc2c[nH]cn2)NC(=O)[C@H](Cc2c[nH]c3ccccc23)NC(=O)[C@H](C)NC(=O)[C@@H]2CSSC[C@H](NC(=O)[C@H](Cc3c[nH]c4ccccc34)NC(=O)[C@H](C(C)C)NC(=O)[C@H](CC(C)C)NC(=O)[C@H](CCC(=O)O)NC(=O)CNC1=O)C(=O)N[C@@H]([C@@H](C)O)C(=O)N1CCC[C@@H]1C(=O)N1C[C@@H](NC(=O)CCOCCOCCOCCOCCOCCOCCOCCOCCn3cc(CCO[C@H]4O[C@H](CCP(=O)(O)O)[C@@H](O)[C@H](O)[C@@H]4O)nn3)C[C@H]1C(=O)N[C@@H](CC(=O)O)C(=O)N2 [Compound 6] | – | – | – | < 50 |
| CC(C)C[C@@H]1NC(=O)[C@H](Cc2c[nH]cn2)NC(=O)[C@H](Cc2c[nH]c3ccccc23)NC(=O)[C@H](C)NC(=O)[C@@H]2CSSC[C@H](NC(=O)[C@H](Cc3c[nH]c4ccccc34)NC(=O)[C@H](C(C)C)NC(=O)[C@H](CC(C)C)NC(=O)[C@H](CCC(=O)O)NC(=O)CNC1=O)C(=O)N[C@@H]([C@@H](C)O)C(=O)N1CCC[C@@H]1C(=O)N1C[C@@H](NC(=O)CCOCCOCCOCCOCCOCCOCCOCCOCCn3cc([C@H]4O[C@H](CCP(=O)(O)O)[C@@H](O)[C@H](O)[C@@H]4O)nn3)C[C@H]1C(=O)N[C@@H](CC(=O)O)C(=O)N2 [Compound 8] | – | < 50 | degradation of IgG | < 50 |
| CC(C)C[C@@H]1NC(=O)[C@H](Cc2cnc[nH]2)NC(=O)[C@H](Cc2c[nH]c3ccccc23)NC(=O)[C@H](C)NC(=O)[C@@H]2CSSC[C@H](NC(=O)[C@H](Cc3c[nH]c4ccccc34)CC(=O)[C@H](C(C)C)NC(=O)[C@H](CC(C)C)NC(=O)[C@H](CCC(=O)O)NC(=O)CNC1=O)C(=O)N[C@@H]([C@@H](C)O)C(=O)N1CCC[C@@H]1C(=O)N1C[C@@H](NC(=O)CCOCCOCCOCCN(CCOCCOCCOCCn3cc(CCO[C@H]4O[C@H](CCP(=O)(O)O)[C@@H](O)[C@H](O)[C@@H]4O)nn3)CCOCCOCCOCCn3cc(CCO[C@H]4O[C@H](CCP(=O)(O)O)[C@@H](O)[C@H](O)[C@@H]4O)nn3)C[C@H]1C(=O)N[C@@H](CC(=O)O)C(=O)N2 [Compound 9] | < 50 | – | – | – |
| COc1ccc(OC2O[C@H](CCP(=O)(O)Cc3cn(CCOCCNC(=O)CCOCC(COCCC(=O)NCCOCCn4cc(CP(=O)(O)CC[C@@H]5OC(Oc6ccc(OC)cc6)[C@H](O)[C@H](O)[C@H]5O)nn4)(COCCC(=O)NCCOCCn4cc(CP(=O)(O)CC[C@H]5OC(Oc6ccc(OC)cc6)[C@@H](O)[C@@H](O)[C@@H]5O)nn4)NC(=O)COCCOCCOCC(=O)N[C@H]4C[C@H]5C(=O)N[C@@H](CC(=O)O)C(=O)N[C@H]6CSSC[C@H](NC(=O)[C@H](Cc7c[nH]c8ccccc78)NC(=O)[C@H](C(C)C)NC(=O)[C@H](CC(C)C)NC(=O)[C@H](CCC(=O)O)NC(=O)CNC(=O)[C@H](CC(C)C)NC(=O)[C@H](Cc7c[nH]cn7)NC(=O)[C@H](Cc7c[nH]c8ccccc78)NC(=O)[C@H](C)NC6=O)C(=O)N[C@@H]([C@@H](C)O)C(=O)N6CCC[C@@H]6C(=O)N5C4)nn3)[C@@H](O)[C@H](O)[C@@H]2O)cc1 (stereo partly shown) [Compound 10] | < 50 | – | – | – |
| COc1ccc(OC2O[C@H](CCP(=O)(O)Cc3cn(CCOCCOCCOCCOCCOCCOCCOCCOCCC(=O)N[C@H]4C[C@H]5C(=O)N[C@@H](CC(=O)O)C(=O)N[C@H]6CSSC[C@H](NC(=O)[C@H](Cc7c[nH]c8ccccc78)NC(=O)[C@@H](C(C)C)NC(=O)[C@@H](CC(C)C)NC(=O)[C@H](CCC(=O)O)NC(=O)CNC(=O)[C@@H](CC(C)C)NC(=O)[C@H](Cc7cnc[nH]7)NC(=O)[C@H](Cc7c[nH]c8ccccc78)NC(=O)[C@H](C)NC6=O)C(=O)N[C@H]([C@@H](C)O)C(=O)N6CCC[C@@H]6C(=O)N5C4)nn3)[C@@H](O)[C@H](O)[C@@H]2O)cc1 (stereo partly shown) [Compound 11] | – | – | – | < 50 |
| CC(C)C[C@H]1NC(=O)[C@H](Cc2c[nH]cn2)NC(=O)[C@H](Cc2c[nH]c3ccccc23)NC(=O)[C@H](C)NC(=O)[C@@H]2CSSC[C@H](NC(=O)[C@H](Cc3c[nH]c4ccccc34)NC(=O)[C@@H](C(C)C)NC(=O)[C@@H](CC(C)C)NC(=O)[C@H](CCC(=O)O)NC(=O)CNC1=O)C(=O)N[C@H]([C@@H](C)O)C(=O)N1CCC[C@@H]1C(=O)N1C[C@@H](NC(=O)CCOCCOCCOCCOCCOCCOCCOCCOCCn3cc(CCCCNC(=O)Nc4ccc5c(c4)Cc4cc(O[C@H]6O[C@H](CCP(=O)(O)O)[C@@H](O)[C@H](O)[C@@H]6O)ccc4-5)nn3)C[C@H]1C(=O)N[C@@H](CC(=O)O)C(=O)N2 [Compound 12] | – | < 50 | degradation of IgG | – |
